Where only a bound is given, the exact number is not on record here.

Our source for the IC50 values is US20230233569A1 (Revolution Medicines, Inc., priority 2020, published 2023).

Holding throughout (assay type): biochemical
Experiment [1] deals with T1, KRAS G12V (Homo sapiens, UniProt P01116+P62937, G12V). Nature of the experiment: Disruption of BRAF RBD interaction with Ras (FRET / MOA assay, with Cyclophilin A). The settings on record: KRAS G12V; read-out: KRAS G12V FRET data IC50. An outline of the steps:
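TR-FRET: nucleotide-loaded K-Ras mutant or WT with Cyclophilin A and BRAF RBD, compound 10-point 3-fold from 30 μM final, 3 h at 25° C, then anti-His Eu (10 nM) and anti-GST APC (50 nM) for 1.5 h. Decreased FRET ratio versus DMSO gives IC50.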

The next experiment deals with KRAS Q61H (Homo sapiens, UniProt P01116+P62937, Q61H). The experiment is described as above. The conditions noted are these: KRAS Q61H; read-out: KRAS Q61H FRET data IC50. An excerpt: Disruption of B-Raf Ras-Binding Domain (BRAF^RBD) Interaction with K-Ras by Compounds of the Invention (Also Called a FRET Assay or an MOA Assay)
Sequence of KRAS Q61H (P01116 1-169 isoform P01116-2 Q61H limits assumed): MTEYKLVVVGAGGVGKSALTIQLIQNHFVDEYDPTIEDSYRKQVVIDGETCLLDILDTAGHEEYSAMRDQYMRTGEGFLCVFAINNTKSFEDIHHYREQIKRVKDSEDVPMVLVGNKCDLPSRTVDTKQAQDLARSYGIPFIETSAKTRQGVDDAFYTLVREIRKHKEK
Sequence of KRAS Q61H (P62937 whole entry, the tested form may be a part): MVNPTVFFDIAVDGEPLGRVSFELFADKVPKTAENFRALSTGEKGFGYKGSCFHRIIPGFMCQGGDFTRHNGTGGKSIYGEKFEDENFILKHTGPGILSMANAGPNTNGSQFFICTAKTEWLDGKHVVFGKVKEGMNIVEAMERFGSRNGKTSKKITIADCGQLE
Note—The following protocol describes a procedure for monitoring disruption of K-Ras G12C (GMP-PNP) binding to BRAF^RBD by a compound of the invention. This protocol may also be executed substituting other Ras proteins or nucleotides.
The purpose of this biochemical assay was to measure the ability of test compounds to facilitate ternary complex formation between a nucleotide-loaded K-Ras isoform and Cyclophilin A; the resulting ternary complex disrupts binding to a BRAF^RBD construct, inhibiting K-Ras signaling through a RAF effector. Data is reported as IC50 values.
In assay buffer containing 25 mM HEPES pH 7.3, 0.002% Tween20, 0.1% BSA, 100 mM NaCl and 5 mM MgCl2, tagless Cyclophilin A, His6-K-Ras-GMPPNP, and GST-BRAF^RBD were combined in a 384-well assay plate at final concentrations of 25 μM, 12.5 nM and 50 nM, respectively. Compound was present in plate wells as a 10-point 3-fold dilution series starting at a final concentration of 30 μM. After incubation at 25° C. for 3 hours, a mixture of Anti-His Eu-W1024 and anti-GST allophycocyanin was then added to assay sample wells at final concentrations of 10 nM and 50 nM, respectively, and the reaction incubated for an additional 1.5 hours. […] Compounds that facilitate disruption of a K-Ras:RAF complex were identified as those eliciting a decrease in the TR-FRET ratio relative to DMSO control wells.
The purpose of this biochemical assay was to measure the ability of test compounds to facilitate ternary complex formation between a nucleotide-loaded K-Ras isoform and Cyclophilin A; the resulting ternary complex disrupts binding to a BRAF^RBDD construct, inhibiting K-Ras signaling through a RAF effector. Data is reported as IC50 values.

A further experiment addresses KRAS G12C (Homo sapiens, UniProt P01116+P62937, G12C). The experiment in a line: Ras-Raf disruption / FRET / MOA assay (BRAF RBD). The settings on record: Ras-Raf disruption, with Cyclophilin A; read-out: KRAS G12C FRET data IC50. An outline of the steps:
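TR-FRET read-out after 1.5 h with anti-His Eu-W1024 (10 nM) and anti-GST APC (50 nM), following 3 h at 25 °C of compound (top 30 μM, 3-fold, 10 points) with 25 μM Cyclophilin A, 12.5 nM GMPPNP-loaded K-Ras G12C and 50 nM BRAF RBD; IC50 reported.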

Another experiment concerns the target KRAS G13C (Homo sapiens, UniProt P01116+P62937, G13C). Nature of the experiment: Ras-Raf disruption / FRET / MOA assay (BRAF RBD). The conditions noted are these: Ras-Raf disruption, with Cyclophilin A; read-out: KRAS G13C FRET data IC50. An outline of the steps:
(§1)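 Compound-induced Ras–Cyclophilin A ternary complex disrupting BRAF RBD binding, read as IC50 from reduced TR-FRET ratio relative to DMSO. Final: Ras-GMPPNP 12.5 nM, BRAF RBD 50 nM, Cyclophilin A 25 μM, top compound 30 μM (3-fold, 10 points); 3 h at 25 °C, then 1.5 h with detection antibodies.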

Another experiment deals with KRAS WT (Homo sapiens, UniProt P01116+P62937). Nature of the experiment: Ras-Raf disruption / FRET / MOA assay (BRAF RBD). The conditions noted are these: Ras-Raf disruption, with Cyclophilin A; read-out: KRAS WT FRET data IC50. An outline of the steps:
as §1

In a further experiment the target is NRAS G12C (Homo sapiens, UniProt P01111+P62937, G12C). Nature of the experiment: Ras-Raf disruption / FRET / MOA assay (BRAF RBD). The conditions noted are these: NRAS G12C; read-out: NRAS G12C FRET data IC50. An outline of the steps:
as §1

The target in another experiment is KRAS G12D (Homo sapiens, UniProt P01116+P62937, G12D). The experiment in a line: Ras-Raf disruption / FRET / MOA assay (BRAF RBD). The settings on record: Ras-Raf disruption, with Cyclophilin A; read-out: KRAS G12D FRET data IC50. An outline of the steps:
as §1

The next experiment addresses KRAS G13D (Homo sapiens, UniProt P01116+P62937, G13D). The experiment in a line: Ras-Raf disruption / FRET / MOA assay (BRAF RBD). The settings on record: Ras-Raf disruption, with Cyclophilin A; read-out: KRAS G13D FRET data IC50. An outline of the steps:
as §1

In experiment [2] the target is T1, KRAS G12V. The experiment in a line: Ras-Raf disruption / FRET / MOA assay (BRAF RBD). The conditions noted are these: Ras-Raf disruption, with Cyclophilin A; read-out: KRAS G12V FRET data IC50. An outline of the steps: as §1
For the next experiment, the target named is KRAS G12S (Homo sapiens, UniProt P01116+P62937, G12S). Nature of the experiment: Ras-Raf disruption / FRET / MOA assay (BRAF RBD). The settings on record: Ras-Raf disruption, with Cyclophilin A; read-out: KRAS G12S FRET data IC50. An outline of the steps:
as §1

Sequence of KRAS G12S (P01116 1-169 isoform P01116-2 G12S limits assumed): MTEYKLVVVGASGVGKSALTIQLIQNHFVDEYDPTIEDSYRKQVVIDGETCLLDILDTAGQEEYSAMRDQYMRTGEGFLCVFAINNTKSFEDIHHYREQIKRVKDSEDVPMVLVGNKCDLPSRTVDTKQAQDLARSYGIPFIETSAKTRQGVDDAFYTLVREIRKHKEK
Sequence of KRAS G12S (P62937 whole entry): as the sequence (P62937 whole entry, the tested form may be a part) above
Sequence of KRAS WT (P01116 1-169 isoform P01116-2 limits assumed): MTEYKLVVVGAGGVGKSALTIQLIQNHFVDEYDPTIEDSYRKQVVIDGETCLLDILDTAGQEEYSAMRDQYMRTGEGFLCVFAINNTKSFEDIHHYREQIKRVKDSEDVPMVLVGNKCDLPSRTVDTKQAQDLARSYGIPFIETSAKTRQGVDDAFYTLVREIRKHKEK
Sequence of KRAS WT (P62937 whole entry): as the sequence (P62937 whole entry, the tested form may be a part) above
T1 sequence (P01116 1-169 isoform P01116-2 G12V limits assumed): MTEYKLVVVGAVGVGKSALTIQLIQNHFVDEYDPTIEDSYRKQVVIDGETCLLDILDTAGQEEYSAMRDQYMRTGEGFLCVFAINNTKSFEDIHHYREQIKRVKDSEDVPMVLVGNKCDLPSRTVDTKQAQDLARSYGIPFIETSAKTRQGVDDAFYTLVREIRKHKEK
T1 sequence (P62937 whole entry): as the sequence (P62937 whole entry, the tested form may be a part) above
Sequence of KRAS G13D (P01116 1-169 isoform P01116-2 G13D limits assumed): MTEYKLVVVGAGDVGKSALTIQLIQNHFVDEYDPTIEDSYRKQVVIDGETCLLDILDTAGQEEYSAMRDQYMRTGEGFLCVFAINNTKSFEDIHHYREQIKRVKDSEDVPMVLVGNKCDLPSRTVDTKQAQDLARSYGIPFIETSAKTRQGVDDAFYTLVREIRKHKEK
Sequence of KRAS G13D (P62937 whole entry): as the sequence (P62937 whole entry, the tested form may be a part) above
Sequence of KRAS G13C (P01116 1-169 isoform P01116-2 G13C limits assumed): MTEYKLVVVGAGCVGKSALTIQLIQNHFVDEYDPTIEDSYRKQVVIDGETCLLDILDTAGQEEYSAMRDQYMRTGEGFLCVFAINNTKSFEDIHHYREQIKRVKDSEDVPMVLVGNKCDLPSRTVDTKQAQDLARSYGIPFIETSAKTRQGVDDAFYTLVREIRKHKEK
Sequence of KRAS G13C (P62937 whole entry): as the sequence (P62937 whole entry, the tested form may be a part) above
Sequence of KRAS G12C (P01116 1-169 isoform P01116-2 G12C limits assumed): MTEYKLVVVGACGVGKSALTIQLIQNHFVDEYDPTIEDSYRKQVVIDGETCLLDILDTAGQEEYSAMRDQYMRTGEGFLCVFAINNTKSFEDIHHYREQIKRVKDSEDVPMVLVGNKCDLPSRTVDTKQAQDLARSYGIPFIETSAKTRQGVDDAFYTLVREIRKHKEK
Sequence of KRAS G12C (P62937 whole entry): as the sequence (P62937 whole entry, the tested form may be a part) above
Sequence of KRAS G12D (P01116 1-169 isoform P01116-2 G12D limits assumed): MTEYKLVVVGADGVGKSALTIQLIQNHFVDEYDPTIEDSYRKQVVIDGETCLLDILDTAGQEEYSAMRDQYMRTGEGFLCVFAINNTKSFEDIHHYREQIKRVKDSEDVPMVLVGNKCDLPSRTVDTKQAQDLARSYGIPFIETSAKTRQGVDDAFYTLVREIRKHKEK
Sequence of KRAS G12D (P62937 whole entry): as the sequence (P62937 whole entry, the tested form may be a part) above
Sequence of NRAS G12C (P01111 whole entry G12C): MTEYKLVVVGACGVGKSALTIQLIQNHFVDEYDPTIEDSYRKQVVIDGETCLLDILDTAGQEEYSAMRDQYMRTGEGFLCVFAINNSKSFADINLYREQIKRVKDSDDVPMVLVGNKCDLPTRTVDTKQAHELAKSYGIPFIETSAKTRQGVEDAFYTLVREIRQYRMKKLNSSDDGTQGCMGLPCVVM
Sequence of NRAS G12C (P62937 whole entry): as the sequence (P62937 whole entry, the tested form may be a part) above

For `CCn1c(-c2cccnc2[C@H](C)OC)c2c3cc(ccc31)-c1csc(n1)C[C@H](NC(=O)[C@H](C(C)C)N(C)C(=O)[C@H]1[C@@H]3CNC[C@@H]31)C(=O)N1CCC[C@H](N1)C(=O)OCC(C)(C)C2` (atropisomer, axis not shown) [Example A448], the IC50 (usually the concentration needed to halve the response being measured) on KRAS G12V [1] is over 10000 nM; at KRAS Q61H it was 1000 to 10000 nM.

In the case of `CCn1c(-c2cccnc2[C@H](C)OC)c2c3nc(ccc31)-c1csc(n1)C[C@H](NC(=O)[C@H](C(C)C)N(C)C(=O)N1CC(OC)C1)C(=O)N1CCC[C@H](N1)C(=O)OCC(C)(C)C2` (atropisomer, axis not shown) [Example A613], the IC50 at KRAS Q61H lay in the range of 1000 to 10000 nM.

In the case of `CCn1c(-c2cccnc2[C@H](C)OC)c2c3cc(ccc31)-c1cc(O)cc(c1)C[C@H](NC(=O)[C@H](C1CCCC1)N1CC[C@]3(CCN(C(=O)[C@H]4CN4)C3)C1=O)C(=O)N1CCC[C@H](N1)C(=O)OCC(C)(C)C2` [Example 175, (2S)-2-((S)-7-((R)-aziridine-2-carbonyl)-1-oxo-2,7-diazaspiro[4.4]nonan-2-yl)-2-cyclopentyl-N-((6^3S,4S)-1^1-ethyl-2^5-hydroxy-1^2-(2-((S)-1-methoxyethyl)pyridin-3-yl)-10,10-dimethyl-5,7-dioxo-6^1,6^2,6^3,6^4,6^5,6^6-hexahydro-1^1H-8-oxa-1(5,3)-indola-6(1,3)-pyridazina-2(1,3)-benzenacycloundecaphane-4-yl)acetamide], the IC50 is under 10 nM on KRAS G12C; 10 to 100 nM at KRAS G13C; 10 to 100 nM on KRAS WT; under 10 nM at NRAS G12C; 10 to 100 nM on KRAS G12D; 10 to 100 nM on KRAS G13D. Besides, the IC50 on KRAS G12V [2] and at KRAS G12S was 10 to 100 nM in each case.

Take `CCn1c(-c2cccnc2[C@H](C)OC)c2c3cc(ccc31)-c1cc(O)cc(c1)C[C@H](NC(=O)[C@H](C(C)C)N(C)C(=O)N1CCN(C(=O)[C@H]3CN3)CC1)C(=O)N1CCC[C@H](N1)C(=O)OCC(C)(C)C2` [Example 177, 4-((R)-aziridine-2-carbonyl)-N-((2S)-1-(((6^3S,4S)-1^1-ethyl-2^5-hydroxy-1^2-(2-((S)-1-methoxyethyl)pyridin-3-yl)-10,10-dimethyl-5,7-dioxo-6^1,6^2,6^3,6^4,6^5,6^6-hexahydro-1^1H-8-oxa-1(5,3)-indola-6(1,3)-pyridazina-2(1,3)-benzenacycloundecaphane-4-yl)amino)-3-methyl-1-oxobutan-2-yl)-N-methylpiperazine-1-carboxamide]: the IC50 lay in the range of 10 to 100 nM on KRAS G12C; 10 to 100 nM on KRAS G13C; 10 to 100 nM at KRAS WT; 10 to 100 nM on NRAS G12C; 100 to 1000 nM at KRAS G12D; 10 to 100 nM on KRAS G13D. Besides, the half-inhibitory concentration (IC50) on KRAS G12V [2] and on KRAS G12S was 10 to 100 nM throughout.

On to `CCn1c(-c2cccnc2[C@H](C)OC)c2c3cc(ccc31)-c1cc(O)cc(c1)C[C@H](NC(=O)[C@H](C(C)C)N(C)C(=O)CC1CN(C(=O)[C@@H]3CN3)C1)C(=O)N1CCC[C@H](N1)C(=O)OCC(C)(C)C2` [Example 178], for which the IC50 lay in the range of 10 to 100 nM at KRAS G12C; 10 to 100 nM on KRAS G13C; 100 to 1000 nM at KRAS WT; 10 to 100 nM on NRAS G12C; 100 to 1000 nM on KRAS G12D; 100 to 1000 nM on KRAS G13D. Further, the IC50 on KRAS G12V [2] and at KRAS G12S was 100 to 1000 nM in each case.

As to `CCn1c(-c2cccnc2[C@H](C)OC)c2c3cc(ccc31)-c1cc(O)cc(c1)C[C@H](NC(=O)[C@H](C(C)C)N(C)C(=O)CC1CN(C(=O)[C@H]3CN3)C1)C(=O)N1CCC[C@H](N1)C(=O)OCC(C)(C)C2` [Example 179], the IC50 at KRAS G12C lay in the range of 10 to 100 nM; on KRAS G13C it was 10 to 100 nM; at KRAS WT, 100 to 1000 nM; on NRAS G12C, 10 to 100 nM; on KRAS G12D, 100 to 1000 nM; on KRAS G13D it was 100 to 1000 nM. The IC50 on KRAS G12V [2] and on KRAS G12S was 100 to 1000 nM throughout.

On to `CCn1c(-c2cccnc2[C@H](C)OC)c2c3cc(ccc31)-c1cc(O)cc(c1)C[C@H](NC(=O)[C@H](C(C)C)N(C)C(=O)C1CC3(C1)CN(C(=O)[C@@H]1CN1)C3)C(=O)N1CCC[C@H](N1)C(=O)OCC(C)(C)C2` [Example 180], for which the IC50 at KRAS G12C is 100 to 1000 nM; at KRAS G13C it was 10 to 100 nM; on KRAS WT it was 100 to 1000 nM; at NRAS G12C, 100 to 1000 nM; on KRAS G12D, 1000 to 10000 nM; on KRAS G13D it was 100 to 1000 nM. Besides, the IC50 on KRAS G12V [2] and on KRAS G12S was 100 to 1000 nM each time.

With `CCn1c(-c2cccnc2[C@H](C)OC)c2c3cc(ccc31)-c1cc(O)cc(c1)C[C@H](NC(=O)[C@H](C(C)C)N(C)C(=O)[C@H]1C[C@H](NC(=O)[C@H]3CN3)C1)C(=O)N1CCC[C@H](N1)C(=O)OCC(C)(C)C2` [Example 182], the IC50 at KRAS G12C is 10 to 100 nM; at KRAS G13C, under 10 nM; on KRAS WT, 10 to 100 nM; at NRAS G12C, 10 to 100 nM; at KRAS G12D it was 100 to 1000 nM; at KRAS G13D, 10 to 100 nM. Also, the half-maximal inhibitory concentration (IC50) at KRAS G12V [2] and at KRAS G12S was 10 to 100 nM each time.

With `CCn1c(-c2cccnc2[C@H](C)OC)c2c3cc(ccc31)-c1cc(O)cc(c1)C[C@H](NC(=O)[C@H](C(C)C)N(C)C(=O)N1CCN(C(=O)[C@@H]3CN3)C(=O)C1)C(=O)N1CCC[C@H](N1)C(=O)OCC(C)(C)C2` [Example 194], the concentration for half-maximal inhibition (IC50) at KRAS G12C fell in the range of 100 to 1000 nM; at KRAS G13C, 10 to 100 nM; at KRAS WT, 100 to 1000 nM; on NRAS G12C it was 100 to 1000 nM; at KRAS G12D, 100 to 1000 nM; at KRAS G13D, 10 to 100 nM. For the same compound, the IC50 on KRAS G12V [2] and at KRAS G12S was 100 to 1000 nM throughout.

For the compound `CCn1c(-c2cccnc2[C@H](C)OC)c2c3cc(ccc31)-c1cc(O)cc(c1)C[C@H](NC(=O)[C@H](C(C)C)N(C)C(=O)[C@@H]1OCC[C@@H]1c1ccccc1)C(=O)N1CCC[C@H](N1)C(=O)OCC(C)(C)C2` [Example A415], the IC50 at KRAS Q61H is under 10 nM.
